{
  "source": "paper PMC4783179",
  "about": "(The Journal of comparative neurology, 2015)",
  "key": {"5-HT1A receptors": {"system": "5-HT1A receptors", "conditions": "ref Wooten et al., cited from earlier work"}, "rabbits [1]": {"system": "rabbits", "test": "14-Day Toxicity Study of FCWAY, intravenous", "assay_type": "in vivo", "conditions": "from rabbit 0.3 mg/kg/day"}, "rabbits [2]": {"system": "rabbits", "conditions": "intravenous, 14 consecutive days, ref PDSP data base; cited from earlier work"}, "[3]": {"system": "hippocampal extracellular serotonin levels", "conditions": "mice; ref Whittington and Virag, 2006; cited from earlier work"}, "[4]": {"system": "serotonin release in the rat frontal cortex", "conditions": "ref Mukaida et al., 2007; cited from earlier work"}, "human P-glycoprotein": {"system": "human P-glycoprotein", "conditions": "cited from earlier work"}, "human": {"system": "human", "conditions": "ref PDSP data base; cited from earlier work"}, "[5]": {"conditions": "humans, baseline and with disulfiram; ref Ryu et al., 2007; cited from earlier work"}, "[6]": {"conditions": "humans, with disulfiram; ref Ryu et al., 2007; cited from earlier work"}, "[7]": {"conditions": "rat, in vivo; cited from earlier work"}},
  "note": "Values joined by “and” are separate entries in the source; they are usually repeats but may differ in a detail not shown here. Identical values can stand only once. Like-named read-outs stand apart in the source and are kept apart here.",
  "data": [
    {"smiles": "COc1ccccc1N1CCN(CCN(C(=O)C2CCC(CF)CC2)c2ccccn2)CC1", "note": "(single isomer, unassigned) [cis-isomer of Mefway]", "values": [
      {"measurement": "Binding compared to trans-isomer", "setting": "5-HT1A receptors; 2011a", "result": "lower binding"}
    ]},
    {"smiles": "COc1ccccc1N1CCN(CCN(C(=O)C2CCCC(CF)C2)c2ccccn2)CC1", "note": "(stereo not drawn) [3-Mefway analog]", "values": [
      {"measurement": "In vivo binding properties compared to 4-Mefway", "setting": "5-HT1A receptors; 2014", "result": "lower in vivo binding properties"}
    ]},
    {"smiles": "COc1ccccc1N1CCN(CCN(C(=O)C2CCC(F)CC2)c2ccccn2)CC1", "note": "(stereo not drawn) [FCWAY]", "values": [
      {"measurement": "Human equivalent dose (HED) of the no-effect level", "setting": "rabbits [1]", "result": 0.097, "unit": "mg/kg"},
      {"measurement": "No-effect level", "setting": "rabbits [2]", "result": 0.3, "unit": "mg/kg body weight/day"}
    ]},
    {"smiles": "FC(F)OC(Cl)C(F)(F)F", "note": "(stereo not drawn) [Isoflurane]", "values": [
      {"measurement": "Hippocampal extracellular serotonin levels", "setting": "[3]", "result": "< 40 % of baseline"},
      {"measurement": "Serotonin release, frontal cortex", "setting": "[4]", "result": "< 40 % of awake state"}
    ]},
    {"smiles": "COc1ccccc1N1CCN(CCN(C(=O)c2ccc(F)cc2)c2ccccn2)CC1", "note": "[MPPF]", "values": [
      {"measurement": "Substrate of human P-glycoprotein", "setting": "human P-glycoprotein", "result": "not being suitable substrates"}
    ]},
    {"smiles": "COc1ccccc1N1CCN(CCN(C(=O)C2CCCCC2)c2ccccn2)CC1", "note": "[WAY-100635, N-{2-[4-(2-methoxyphenyl)piperazin-1-yl]ethyl}-N-(pyridine-2-yl)cyclohexanecarboxamide]", "values": [
      {"measurement": "Daily dose safely used in human", "setting": "human", "result": "up to 700 μg/kg"},
      {"measurement": "Substrate of human P-glycoprotein", "setting": "human P-glycoprotein; ref Tournier et al., 2011", "result": "not being suitable substrates"}
    ]},
    {"smiles": "COc1ccccc1N1CCN(CCN(C(=O)C2CCC([18F])CC2)c2ccccn2)CC1", "note": "(stereo not drawn) [^18F-FCWAY]", "values": [
      {"measurement": "Plasma free fraction", "setting": "[5]", "result": "13% and ~ 13%"},
      {"measurement": "Decrease of plasma clearance compared to baseline", "setting": "[6]", "result": 47, "unit": "%"}
    ]},
    {"smiles": "O=C(O)[C@H]1CC[C@H](C[18F])CC1", "note": "[^18F-FMCHA]", "values": [
      {"measurement": "Brain penetration and retention", "setting": "[7]", "result": "poor penetration and retention"}
    ]}
  ]
}
